Measurements as given in patent US20240342186A1, “PYRIDINE DERIVATIVES WITH N-LINKED CYCLIC SUBSTITUENTS AS cGAS INHIBITORS” (Boehringer Ingelheim International GmbH, priority 2021, published 2024).
pIC50: −log10 of the molar value.

Legend:
[1] = molecular target: cGAS (Homo sapiens (Human), UniProt Q8N884); assay: Human cGAS enzyme assay (hcGAS IC50, in vitro), cGAMP formation by RapidFire MS; format: biochemical; conditions: biochemical (in vitro) cGAS inhibition;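 also: enzyme activated by 45 bp dsDNA with GTP and ATP (30 µM each), 60 min compound pre-incubation then 90 min reaction, cGAMP relative to cyclic-di-GMP internal standard, 8-point dilutions up to 10 µM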
Chain of cGAS (Q8N884 whole entry): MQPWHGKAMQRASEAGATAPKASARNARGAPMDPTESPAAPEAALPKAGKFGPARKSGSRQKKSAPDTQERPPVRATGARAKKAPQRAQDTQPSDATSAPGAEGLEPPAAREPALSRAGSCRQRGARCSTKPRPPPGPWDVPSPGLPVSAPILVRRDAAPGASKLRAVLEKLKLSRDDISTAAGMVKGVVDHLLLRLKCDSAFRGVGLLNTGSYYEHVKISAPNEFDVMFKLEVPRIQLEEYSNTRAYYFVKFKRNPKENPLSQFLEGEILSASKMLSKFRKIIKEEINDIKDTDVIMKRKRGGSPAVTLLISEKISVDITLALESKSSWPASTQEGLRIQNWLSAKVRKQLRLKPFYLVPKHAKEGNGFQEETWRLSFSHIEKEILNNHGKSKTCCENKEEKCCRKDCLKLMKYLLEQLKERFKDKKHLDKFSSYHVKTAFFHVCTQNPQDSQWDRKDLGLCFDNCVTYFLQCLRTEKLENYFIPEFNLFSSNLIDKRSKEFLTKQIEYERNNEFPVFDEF

[2] = test system: cellular cGAS activity in dsDNA-stimulated human whole blood; assay: Human whole blood assay (hWB IC50): IFNα2α production after dsDNA transfection; format: cell-based; conditions: inhibition of IFN induction in dsDNA-stimulated human whole blood
Summary of the method: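 Citrated blood from healthy donors preincubated 60 min at room temperature with compound (top 10 µM, ~1:5 steps, 0.1% DMSO), then transfected with dsDNA/Fugene and incubated 22 h at 37 °C. Plasma IFNα2α measured by MSD immunoassay; IC50 from 4-parameter fit of % control (stimulated vs unstimulated).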

[3] = test system: cellular cGAS activity in baculovirus-stimulated THP1-Dual cells (IRF dependent Lucia luciferase reporter); assay: Human cGAS cell assay: inhibition of IFN induction in virus-stimulated THP1 cells (THP1(vir) IC50); format: cell-based; conditions: Homo sapiens, THP1-Dual; inhibition of IFN induction in virus-stimulated THP1 cells; read-out: THP1(vir) IC50
Summary of the method: (§1)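 THP1-Dual cells with IRF-dependent Lucia luciferase reporter, stimulated by empty baculovirus (dsDNA delivery activating cGAS) or, for the counter assay, directly by cGAMP. 5000 cells/well, 8 concentrations from 10 μM top, 1% DMSO, 18 h at 37 °C; luminescence read, IC50 by 4-parameter logistic fit versus unstimulated low control.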

[4] = test system: cGAMP-stimulated THP1-Dual cells (pathway directly downstream of cGAS); assay: cGAMP stimulated counter cell assay: inhibition of IFN induction in cGAMP-stimulated THP1 cells (THP1(cGAMP) IC50); format: cell-based, human; conditions: for IC50: Homo sapiens, THP1-Dual, inhibition of IFN induction in cGAMP-stimulated THP1 cells, read-out: THP1(cGAMP) IC50 (converted); for Ratio THP1(cGAMP) IC50 / THP1(vir) IC50: selectivity for cGAS inhibition
Summary of the method: as §1

| Compound | pIC50 [1] | pIC50 [2] | pIC50 [3] | IC50 [4] | Ratio THP1(cGAMP) IC50 / THP1(vir) IC50 [4] |
| --- | --- | --- | --- | --- | --- |
| C[C@@H]1N(c2cc(Br)cnc2O[C@H]2C[C@@H](C(=O)O)N(c3nc(C(F)(F)F)nc4c3oc3ccccc34)C2)CCOC12CC2 [Example 1.33] | 8.52 | 6.60 | 7.82 | > 10000 nM | 677 |
| C[C@H]1COC[C@H](C)N1c1cc(Br)cnc1O[C@H]1C[C@@H](C(=O)O)N(c2nc(C(F)F)nc3c2oc2ccccc23)C1 [Example 1.26] | 8.00 | 6.32 | 6.23 | 9930 nM | 17 |
| CC1(C#N)CN(c2cc(Cl)cnc2O[C@H]2C[C@@H](C(=O)O)N(c3nc(C(F)F)nc4c3oc3ccccc34)C2)CCO1 (some centres unmarked) [Example 1.02] | 8.40 | 5.46 | 6.16 | 21900 nM | 31 |
| C#Cc1cnc(O[C@H]2C[C@@H](C(=O)O)N(c3nc(C(F)F)nc4c3oc3ccccc34)C2)c(N2CCC3(C[C@@H]2C)N=N3)c1 [Example 1.20] | 8.70 | 6.17 | 6.10 | > 16600 nM | >21 |
| C#Cc1cnc(O[C@H]2C[C@@H](C(=O)O)N(c3nc(C(F)(F)F)nc4c3oc3ccccc34)C2)c(N2CCOC[C@@H]2C)c1 [Example 1.30] | 8.52 | 7.10 | 6.80 | 22100 nM | 139 |
| C#Cc1cnc(O[C@H]2C[C@@H](C(=O)O)N(c3nc(C(F)F)nc4c3oc3ccccc34)C2)c(N2CCOC[C@@H]2C)c1 [Example 1.31] | 8.52 | 6.99 | 6.63 | > 16600 nM | >72 |
| C[C@@H]1N(c2cc(F)cnc2O[C@H]2C[C@@H](C(=O)O)N(c3nc(C(F)(F)F)nc4c3oc3ccccc34)C2)CCOC12COC2 [Example 1.34] | 8.52 | 7.29 | 7.72 | > 10000 nM | 514 |
| C#Cc1cnc(O[C@H]2C[C@@H](C(=O)O)N(c3nc(C(F)F)nc4c3oc3ccccc34)C2)c(N2CCCC[C@@H]2C)c1 [Example 1.19] | 8.40 | 6.18 | 6.16 | > 16600 nM | >24 |

The next lines start with results.

| pIC50 [1] | pIC50 [2] | pIC50 [3] | Compound | IC50 [4] | Ratio THP1(cGAMP) IC50 / THP1(vir) IC50 [4] |
| --- | --- | --- | --- | --- | --- |
| 8.10 | 7.15 | 8.00 | C[C@@H]1N(c2cc(-c3ccc(C#N)nc3)cnc2O[C@H]2C[C@@H](C(=O)O)N(c3nc(C(F)(F)F)nc4c3oc3ccccc34)C2)CCOC12COC2 [Example 3.23] | 10000 nM | 1029 |
| 7.68 | 5.73 | 6.49 | Cc1noc(C)c1-c1cnc(O[C@H]2C[C@@H](C(=O)O)N(c3nc(C(F)(F)F)nc4c3oc3ccccc34)C2)c(N2CCOC3(COC3)[C@@H]2C)c1 [Example 3.27] | 12500 nM | 38 |
| 8.05 | 5.70 | 6.28 | C[C@H]1COCCN1c1cc(-c2cnn(C)c2)cnc1O[C@H]1C[C@@H](C(=O)O)N(c2nc(C(F)(F)F)nc3c2oc2ccccc23)C1 [Example 3.06] | 21400 nM | 41 |
| 7.80 | 7.15 | 6.75 | CNCc1cccc(-c2cnc(O[C@H]3C[C@@H](C(=O)O)N(c4nc(C(F)(F)F)nc5c4oc4ccccc45)C3)c(N3CCOC4(COC4)[C@@H]3C)c2)c1 [Example 3.22] | 8910 nM | 50 |
| 8.22 | 6.49 | 7.24 | C[C@@H]1N(c2cc(-c3cccc(C(N)=O)c3)cnc2O[C@H]2C[C@@H](C(=O)O)N(c3nc(C(F)F)nc4c3oc3ccccc34)C2)CCOC12COC2 [Example 3.24] | 19200 nM | 336 |
| 7.89 | 5.81 | 6.51 | CNc1cc(-c2cnc(O[C@H]3C[C@@H](C(=O)O)N(c4nc(C(F)(F)F)nc5c4oc4ccccc45)C3)c(N3CCOC[C@@H]3C)c2)ccn1 [Example 3.02] | 4920 nM | 16 |
| 8.30 | 7.33 | 8.00 | C[C@@H]1N(c2cc(-n3cccn3)cnc2O[C@H]2C[C@@H](C(=O)O)N(c3nc(C(F)(F)F)nc4c3oc3ccccc34)C2)CCOC12COC2 [Example 10.01, (2S,4S)-4-({3-[(95)-9-methyl-2,5-dioxa-8-azaspiro[3.5]nonan-8-yl]-5-(1H-pyrazol-1-yl)pyridin-2-yl}oxy)-1-[4-(trifluoromethyl)-8-oxa-3,5-diazatricyclo[7.4.0.0^2,7]trideca-1(9),2(7),3,5,10,12-hexaen-6-yl]pyrrolidine-2-carboxylic acid] | > 10000 nM | >1000 |
| 7.77 | 5.79 | 6.13 | CCn1cc(-c2cnc(O[C@H]3C[C@@H](C(=O)O)N(c4nc(C(F)(F)F)nc5c4oc4ccccc45)C3)c(N3CCOC[C@@H]3C)c2)cn1 [Example 3.07] | 12300 nM | 16 |
| 8.05 | 7.46 | 8.00 | C[C@@H]1N(c2cc(-c3cnn(C)n3)cnc2O[C@H]2C[C@@H](C(=O)O)N(c3nc(C(F)(F)F)nc4c3oc3ccccc34)C2)CCOC12COC2 [Example 7.05] | 13200 nM | 1292 |
| 9.00 | 8.30 | 8.52 | C#Cc1cnc(O[C@H]2C[C@@H](C(=O)O)N(c3nc(CF)nc4c3oc3ccccc34)C2)c(N2CCOC3(COC3)[C@@H]2C)c1 [Example 2.04] | 25400 nM | 8125 |
| 8.52 | 7.55 | 7.85 | C#Cc1cnc(O[C@H]2C[C@@H](C(=O)O)N(c3nc(C)nc4c3oc3cc(Cl)ccc34)C2)c(N2CCOC3(COC3)[C@@H]2C)c1 [Example 2.07] | 14500 nM | 1005 |
| 8.22 | 7.42 | 7.80 | CSc1cnc(O[C@H]2C[C@@H](C(=O)O)N(c3nc(C(F)F)nc4c3oc3ccccc34)C2)c(N2CCOC3(COC3)[C@@H]2C)c1 [Example 9.01, (2S,4S)-1-[4-(difluoromethyl)-8-oxa-3,5-diazatricyclo[7.4.0.0^2,7]trideca-1(9),2(7),3,5,10,12-hexaen-6-yl]-4-({3-[(9S)-9-methyl-2,5-dioxa-8-azaspiro[3.5]nonan-8-yl]-5-(methylsulfanyl)pyridin-2-yl}oxy)pyrrolidine-2-carboxylic acid] | 19800 nM | 1254 |
| 7.92 | 7.66 | 8.70 | Cc1cnc(-c2cnc(O[C@H]3C[C@@H](C(=O)O)N(c4nc(C(F)(F)F)nc5c4oc4ccccc45)C3)c(N3CCOC4(COC4)[C@@H]3C)c2)cn1 [Example 7.04] | > 10000 nM | 4084 |
| 8.10 | 7.11 | 6.70 | CNc1nccc(-c2cnc(O[C@H]3C[C@@H](C(=O)O)N(c4nc(C(F)F)nc5c4oc4ccccc45)C3)c(N3CCOC4(COC4)[C@@H]3C)c2)c1OC [Example 4.03] | 7870 nM | 40 |
